Data set [1] concerns Human fibroblasts [strain NS]. The data set can be described thus: Protection of human fibroblasts against glutathione depletion (survival in cystine/methionine deficient EMEM, 48 hr). The settings on record: Fibroblast, read-out: EC90 (concentration at which more than 90% of the fibroblasts survive 48 hours after treatment). It is filed as cell-based. The protocol:
Human fibroblasts [strain NS] were cultured in cystine/methionine deficient EMEM for 48 hr. In control cultures not receiving any treatment, all cells became necrotic. Cell death was scored by phase contrast microscopy. Table 1 summarizes the EC90 values observed with the compounds of formula (I), i.e. the concentration at which more than 90% of the fibroblasts survive 48 hours after treatment with a compound of formula (I).

Data set [2] has as its system C6 glioma cells. The data set can be described thus: Glutathione depletion-induced intracellular peroxides in C6 glioma cells (C-DCDHF fluorescence). Format: cell-based. The note with it: for Level of intracellular peroxides: 1 μM compound + glutamate 10 mM, n ≥ 3 (Table 5); for Level of intracellular peroxides / Intracellular peroxides: mean ± SEM; for Intracellular peroxides: glutamate 10 mM alone, n = 5 (Table 3). The procedure: Fluorescence measurement of intracellular peroxides: Formation of intracellular peroxides was detected using 6-carboxy-2',7'-dichlorodihydrofluorescin diacetate, di(acetoxymethyl ester) (C-DCDHF, Molecular Probes). C-DCDHF was dissolved in DMSO at a concentration of 10 mM and stored at -70° C. under nitrogen. After exposure of the culture to 10 mM glutamate for 14~20 hr, the cells were loaded with 100 μM fluorophore for one hour at 37° C. Medium was aspirated off, PBS was added to the cells, and plates were read in a Cytofluor II micro plate fluorescence reader (PerSeptive Biosystems).Excitation and emission wavelength were selected with a 485/530 nm filter pair. Fluorescence intensity, expressed in relative fluorescence units (rfu)/μg cellular protein was used as index of intracellular peroxides.

Data set [3] deals with C6 glioma cells. The data set can be described thus: Glutathione depletion-induced cell toxicity in C6 glioma cells (LDH release; protection). The settings on record: for IC50 / cytotoxicity at 10000 µM: C6 glioma; for IC50: read-out: Protection IC50; for cytotoxicity at 10000 µM: Rattus norvegicus. (In general: Release of lactate dehydrogenase indicates damage to the cell membrane.)
Protocol: Cultures were maintained at 37° C. in an air/5~10% CO2, water saturated atmosphere.
After 8-24 hr, the cultures were switched to culture medium in the absence or presence of the GSH depleting compound glutamate (10 mM).

Data set [4] relates to primary neuronal (embryonic hippocampal) cultures. The data set can be described thus: Survival-rescue of primary embryonic hippocampal cultures in vitE depleted medium (cytoplasmic LDH activity). Format: cell-based, rat. The note with it: for EC50: Rattus norvegicus, mean ± SD (number of dose responses), 50% of survival in vitE supplemented medium. The procedure:
Primary embryonic hippocampal cultures were prepared essentially as described previously (Pauwels, P, Van Aschouw, H. P., Peeters, L., Moeremans, M., Leysen, J. E. 1992. Chronic treatment with sabeluzole protects cultured rat brain neurons from the neurotoxic effects of excitatory amino acids. Synapse, 12:271-280). Hippocampal formations of rats at embryonic day 17 were dissected and dissociated in 0.05% trypsin, 0.1 mg/ml DNase I in DMEM (Dulbecco Modified Eagle Medium). Heat-inactivated horse serum (HS) was added to a concentration of 4%, and the cells were centrifuged, washed with DMEM, and resuspended in DMEM/Ham's F12 (3:1) containing 10% HS. The cells were plated at a density of 4×10^5 cells/cm^2 in poly L-lysine (0.001%) pre-coated multiwell-24 plates. On day 1 in culture, the medium was changed to chemically defined CDM-R12 medium (DMEM-HEPES/Ham's F12 (3:1) containing 0.26% bovine serum albumin, 30 nM sodium selenite, 3 nM 3,3',5 triiodo-L-thyronine, 0.35 μM retinol, 0.3 μM retinol acetate, 2.3 μM DL-a-tocopherol, 2.1 μM DL-α-tocopherol acetate, […] linolenic acid, 3.6 μM linoleic acid, 0.125% human transferrin, 20 nM progesterone, 57.7 nM corticosterone, 49 U/l insulin, 0.4 μM biotin, 10 μM L-carnitine, 83 μM D(+)-galactose, 3.3 μM glutathione, 10 μM ethanolamine, 0.1 mM putrescine; Romijn, H. J., van Huizen, F., Wolters, P. S. 1984. Towards an improved serum-free, chemically defined medium for long-term culturing of cerebral cortex tissue. Neurosci. Behav. Rev., 8:301-334), either with (control) or without DL-α-tocopherol (VitE) and DL-α-tocopherol acetate, in the presence or absence of test compound. […] Addition of compounds could rescue the cultures. Culture survival was measured by means of cytoplasmic LDH activity. The EC50 for survival-rescue in vitE depleted cultures refers to the concentration of the compound required to restore culture survival to 50% of the survival seen for the culture grown in vitE supplemented medium. Seven concentrations of each compound were tested in triplicate, the number of independent experiments is indicated in the table, and the mean EC50 -value ± SD was calculated (Table 2).
Primary neuronal cultures depend on the presence of the antioxidant vitE in the culture medium for survival in vitro. When vitE depleted medium is used to grow the cultures, survival drops to ±20% of control. Compounds with antioxidative properties are able to complement the lack of vitE, and as such can when added to the culture medium, rescue vitE devoid cultures. Several derivatives of formula (I) were tested at 10^-7 M and 10^-6 M in the vitE depletion test on primary neuronal cultures, and were all able to rescue survival of vitE depleted cultures to a certain extent (Table 2).

Data set [5] deals with C6 glioma cells. The data set can be described thus: GSH content in C6 glioma cell culture. The settings on record: for GSH level: mean ± SEM, n = 3. It is filed as cell-based. An excerpt: The GSH content was deduced from a standard curve ranging from 0.2 to 2 nmol commercial GSH per test (ΔA/min plotted versus concentration).
Another data set can be described thus: Plasma levels. It is filed as in vivo.

“And” between values parts separate entries of the source, which are not always exact repeats. Identical values can stand only once. Like-named read-outs stand apart in the source and are kept apart here.

By IC50 is commonly meant the point on the concentration scale where inhibition reaches its midpoint. A word on the EC50: it is the concentration at which the effect is half-maximal. A lower EC50 goes with an effect from little substance.

Turning to `CCCNc1ccc2c(c1)SC1=NCCN12` [Compound 1], in data set [1], the EC90 came to 40 µM.

In the case of `CNc1ccc2c(c1)SC1=NCCN12` [Compound 2], in data set [1], the EC90 turned out to be 200 µM.

On to `c1cc2c(cc1NC1CCCCC1)SC1=NCCN12` [Compound 3], for which the “Level of intracellular peroxides” value with C6 glioma cells [2] is reported as 22 ± 2 rfu/μg protein. The IC50 in the data set on C6 glioma cells [3] is 0.018 ± 0.003 µM. In data set [1], the EC90 came out at 40 µM. In addition, the half-maximal effective concentration (EC50) in data set [4] was determined as 0.12 ± 0.071 µM.

With `c1cc2c(cc1NC1CCCC1)SC1=NCCN12` [Compound 4], the “Level of intracellular peroxides” value with C6 glioma cells [2] is listed as 18 ± 2 rfu/μg protein. In addition, in the data set with C6 glioma cells [3], the IC50 was found to be 0.029 ± 0.007 µM. Moreover, in data set [1], the EC90 amounted to 40 µM. In data set [4], this compound yielded an EC50 of 0.177 ± 0.059 µM.

As for `CC(C)Nc1ccc2c(c1)SC1=NCCN12` [Compound 5], in data set [1], the EC90 was 40 µM.

For `CN(C)c1ccc2c(c1)SC1=NCCN12` [Compound 6], in data set [1], the EC90 amounted to 40 µM.

For `c1cc2c(cc1NC1CCCCCC1)SC1=NCCN12` [Compound 7, N-cycloheptyl-2,3dihydro-imidazo[2,1-b]benzothiazol-7-amine], the IC50 is 0.028 µM and 0.071 µM with C6 glioma cells [2] (individual values of 2 experiments, read-out: Inhibition of intracellular peroxides IC50); 0.009 µM in the data set with C6 glioma cells [3]. Also, the “GSH level relative to solvent control” value in the data set on C6 glioma cells [5] (1 μM compound + glutamate 10 mM, in words) was “about one third of the solvent control level”. The GSH level in the data set on C6 glioma cells [5] (1 μM compound + glutamate 10 mM) was 242 ± 54 pmol/well. For the same compound, in the data set with C6 glioma cells [3] (1 μM, glutamate 10 mM, in words), the “protection from cell death” value was “fully protected”. In “Plasma levels” (reiterated or chronic administration, in words), the “plasma levels upon reiterated or chronic administration” value was “progressively increase until a steady state is reached”. For the same compound, the “period of effective plasma levels” value in the data set “Plasma levels” (two doses (b.i.d.)) was 24 h. Also, the EC90 in data set [1] was found to be 0.32 µM. The EC50 in data set [4] was 0.025 ± 0.012 µM. Besides, the “complete rescue of primary neuronal cultures grown in VitE depleted medium (concentration)” value in data set [4] (VitE depleted medium) is recorded as 10^-7 M. For the same compound, the “potency rank in vitE depletion test” value in data set [4] (in words) was “the most potent compound”. In data set [4] (vitE depletion test, estimated), the “antioxidative activity relative to vitE” value is listed as “about 100 times more potent than vitE”.

For `CCNc1ccc2c(c1)SC1=NCCN12` [Compound 8], in data set [1], the EC90 came to 200 µM.

As to `CCC(CC)Nc1ccc2c(c1)SC1=NCCN12` [Compound 9], the EC90 in data set [1] turned out to be 40 µM.

With `CCCCNc1ccc2c(c1)SC1=NCCN12` [Compound 10], the EC90 in data set [1] is 200 µM.

In the case of `CCC(C)Nc1ccc2c(c1)SC1=NCCN12` (stereo not shown) [Compound 11], in data set [1], the EC90 stood at 40 µM. The same compound showed an EC50 in data set [4] of 0.224 µM.

With `CCCC(C)Nc1ccc2c(c1)SC1=NCCN12` (stereo not shown) [Compound 12], the “Level of intracellular peroxides” value in the data set on C6 glioma cells [2] stood at 24 ± 1 rfu/μg protein. Further, the IC50 in the data set with C6 glioma cells [3] was determined as 0.029 ± 0.014 µM. Also, the EC90 in data set [1] was 40 µM. The compound also gave an EC50 in data set [4] of 0.37 ± 0.169 µM.

`CCCCC(C)Nc1ccc2c(c1)SC1=NCCN12` (stereo not shown) [Compound 13]: the “Level of intracellular peroxides” value in the data set on C6 glioma cells [2] is recorded as 19 ± 1 rfu/μg protein. Further, the IC50 with C6 glioma cells [3] was determined as 0.01 ± 0.005 µM. For the same compound, the EC90 in data set [1] was found to be 8 µM. A half-maximal response in data set [4] (EC50) required 0.045 µM.

In the case of `CC(C)(C)CNc1ccc2c(c1)SC1=NCCN12` [Compound 14], the EC90 in data set [1] is 8 µM.

`CCCN(CCC)c1ccc2c(c1)SC1=NCCN12` [Compound 15]: in data set [1], the EC90 worked out at 40 µM.

As to `CCCCCCNc1ccc2c(c1)SC1=NCCN12` [Compound 16, N-hexyl-2,3-dihydro-imidazo[2,1-b]benzothiazol-7-amine], the “Level of intracellular peroxides” value with C6 glioma cells [2] is 21 ± 1 rfu/μg protein. In addition, in the data set on C6 glioma cells [3], the IC50 came to 0.005 ± 0.001 µM. Also, the EC90 in data set [1] came out at 1.6 µM. The compound also registered an EC50 in data set [4] of 0.041 ± 0.018 µM.

As for `c1cc2c(cc1NC1C3CC4CC(C3)CC1C4)SC1=NCCN12` (stereo not shown) [Compound 17], the “Level of intracellular peroxides” value in the data set with C6 glioma cells [2] is 19 ± 1 rfu/μg protein. In addition, the IC50 with C6 glioma cells [3] was found to be 0.012 ± 0.002 µM. The same compound showed a concentration for a half-maximal effect (EC50) in data set [4] of 0.047 ± 0.019 µM.

For the compound `Cc1cc(NC2CCCC2)c(C(C)C)c2c1N1CCN=C1S2` [Compound 18], in the data set with C6 glioma cells [2], the “Level of intracellular peroxides” value amounted to 19 ± 1 rfu/μg protein. Further, the IC50 with C6 glioma cells [3] worked out at 0.025 ± 0.014 µM. The same compound registered an EC50 in data set [4] of 0.126 µM.

As for `N[C@@H](CCC(=O)O)C(=O)O` [Glutamate, glutamate, reference compound], in the data set with C6 glioma cells [2] (glutamate 10 mM), the “increase in toxic intracellular peroxides” value is listed as approximately 3 fold. Also, the results for the Intracellular peroxides in the data set on C6 glioma cells [2] and in the data set on C6 glioma cells [2] (listed as glutamate) were 205 ± 35 rfu/μg protein and 205 rfu/μg protein, respectively. For the same compound, the GSH level with C6 glioma cells [5] (glutamate 10 mM alone) was found to be 277 ± 24 pmol/well; with C6 glioma cells [5] (glutamate 10 mM alone, listed as glutamate) it was 277 pmol/well. Also, in the data set with C6 glioma cells [5] (glutamate 10 mM, 6~7 hr), the “reduction in intracellular GSH level versus control” value is approximately 3 fold. Besides, the cytotoxicity at 10000 µM in the data set with C6 glioma cells [3] (48 h, read-out: LDH release, % of total) is 78 ± 7%; in the data set on C6 glioma cells [3] (read-out: cell death) it was approximately 78%.

With `C[C@]12N[C@H](Cc3ccccc31)c1ccccc12` [MK801, reference compound], the “prevention of LDH release” value in the data set with C6 glioma cells [3] (NMDA antagonist, data not shown, in words) was “not prevented”.

The record behind these values is patent US5955485A, “Use of fused benzothiazoles as neuroprotectants” (Janssen Pharmaceutica, N.V., priority 1995, dated 1999).
